In one experiment the target is Beta-galactosidase (Escherichia coli, UniProt Q8VNN2). The experiment can be described thus: Dose response counterscreen for EBI2 assay utilizing the enzyme, b-galactosidase. Type of experiment: functional. Background: Counterscreens check selectivity or assay interference.
The next experiment concerns the target Nonstructural protein 1 (Influenza A virus, UniProt Q194T2). Type of experiment: functional, Influenza A virus (A/California/07/2009(H1N1)).
The target in experiment [1] is T1, Histone-lysine N-methyltransferase NSD2 (Homo sapiens, UniProt O96028).
T1 sequence (O96028 whole entry): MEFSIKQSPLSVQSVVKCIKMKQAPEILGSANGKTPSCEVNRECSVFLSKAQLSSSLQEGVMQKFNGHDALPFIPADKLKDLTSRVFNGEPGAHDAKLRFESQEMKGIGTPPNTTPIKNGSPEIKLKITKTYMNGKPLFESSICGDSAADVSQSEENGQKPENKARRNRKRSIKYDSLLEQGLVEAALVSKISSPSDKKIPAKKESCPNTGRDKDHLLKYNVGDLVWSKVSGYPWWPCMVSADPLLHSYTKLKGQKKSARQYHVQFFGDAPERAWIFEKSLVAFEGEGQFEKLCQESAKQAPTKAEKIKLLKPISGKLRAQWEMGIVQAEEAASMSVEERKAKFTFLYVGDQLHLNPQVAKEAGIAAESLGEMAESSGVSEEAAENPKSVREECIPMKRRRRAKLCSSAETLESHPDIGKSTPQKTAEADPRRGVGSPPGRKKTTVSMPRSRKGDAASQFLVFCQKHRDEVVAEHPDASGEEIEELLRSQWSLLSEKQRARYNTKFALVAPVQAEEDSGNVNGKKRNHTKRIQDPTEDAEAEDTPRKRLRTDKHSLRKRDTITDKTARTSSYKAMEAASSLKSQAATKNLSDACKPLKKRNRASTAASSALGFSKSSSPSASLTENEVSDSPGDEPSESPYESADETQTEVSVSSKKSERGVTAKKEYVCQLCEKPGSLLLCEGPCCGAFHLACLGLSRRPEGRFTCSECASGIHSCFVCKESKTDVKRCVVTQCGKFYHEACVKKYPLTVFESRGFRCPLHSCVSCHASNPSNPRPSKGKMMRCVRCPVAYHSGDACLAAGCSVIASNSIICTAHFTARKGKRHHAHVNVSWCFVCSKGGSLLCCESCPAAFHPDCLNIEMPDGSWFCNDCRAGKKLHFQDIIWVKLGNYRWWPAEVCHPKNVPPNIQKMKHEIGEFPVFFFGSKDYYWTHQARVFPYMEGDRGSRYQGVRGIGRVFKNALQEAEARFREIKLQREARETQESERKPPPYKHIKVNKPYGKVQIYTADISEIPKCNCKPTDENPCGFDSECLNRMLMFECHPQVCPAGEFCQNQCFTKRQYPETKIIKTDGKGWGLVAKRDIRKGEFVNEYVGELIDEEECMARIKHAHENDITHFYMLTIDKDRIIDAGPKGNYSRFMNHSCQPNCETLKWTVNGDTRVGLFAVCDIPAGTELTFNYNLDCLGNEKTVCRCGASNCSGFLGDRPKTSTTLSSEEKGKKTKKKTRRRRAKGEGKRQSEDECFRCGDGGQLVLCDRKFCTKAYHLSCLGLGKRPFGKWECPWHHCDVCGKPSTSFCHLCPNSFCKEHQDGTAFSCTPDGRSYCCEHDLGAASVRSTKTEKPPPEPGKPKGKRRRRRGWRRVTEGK
The class given is biochemical.

In experiment [2] the target is Luciferin 4-monooxygenase (Photinus pyralis, UniProt P08659). Nature of the experiment: firefly luciferase enzyme inhibitors, dose response, biochemical, luminescence (AID 1891).
Sequence of Luciferin 4-monooxygenase (P08659 whole entry): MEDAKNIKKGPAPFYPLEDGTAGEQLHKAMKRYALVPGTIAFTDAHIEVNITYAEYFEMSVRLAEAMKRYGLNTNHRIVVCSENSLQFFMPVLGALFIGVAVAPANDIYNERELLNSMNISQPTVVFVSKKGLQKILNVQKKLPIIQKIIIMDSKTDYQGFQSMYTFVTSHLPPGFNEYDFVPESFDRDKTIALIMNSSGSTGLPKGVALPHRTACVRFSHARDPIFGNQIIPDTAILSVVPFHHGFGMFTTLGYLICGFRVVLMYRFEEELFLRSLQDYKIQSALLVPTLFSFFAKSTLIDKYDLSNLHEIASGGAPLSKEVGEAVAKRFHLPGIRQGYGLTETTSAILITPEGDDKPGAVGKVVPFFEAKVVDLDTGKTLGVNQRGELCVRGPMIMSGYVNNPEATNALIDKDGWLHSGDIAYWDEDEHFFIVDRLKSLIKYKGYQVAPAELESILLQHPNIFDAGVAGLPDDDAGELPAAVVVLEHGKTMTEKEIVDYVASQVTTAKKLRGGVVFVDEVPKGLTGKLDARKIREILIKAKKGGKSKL
A short description of experiment [3]: Luminescence Cell-Based Dose Confirmation HTS to Identify Inhibitors of Platelet Dense Granule Release. [Related pubchem assays: 1663 (Primary HTS), 1678 (Summary of Project)]. The class given is functional.
A short description of another experiment: cells. The class given is functional.
A short description of experiment [4]: HepG2 cell cytotoxicity, dose response, cytotoxicity control, plate reader, cherry-pick, antagonist series (AID 743416). The class given is functional, cell-based.
The target of experiment [5] is T2, Fatty acid synthase (Homo sapiens, UniProt P49327). The experiment can be described thus: FAS thioesterase domain inhibitors, dose response, biochemical, endpoint fluorescence intensity, uHTS hits (AID 624327).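 Further: fluorescence from hydrolysis of an O-methyl fluorescein acyl ester substrate by the enzyme.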 The class given is functional.
T2 sequence (P49327 whole entry, the tested form may be a part): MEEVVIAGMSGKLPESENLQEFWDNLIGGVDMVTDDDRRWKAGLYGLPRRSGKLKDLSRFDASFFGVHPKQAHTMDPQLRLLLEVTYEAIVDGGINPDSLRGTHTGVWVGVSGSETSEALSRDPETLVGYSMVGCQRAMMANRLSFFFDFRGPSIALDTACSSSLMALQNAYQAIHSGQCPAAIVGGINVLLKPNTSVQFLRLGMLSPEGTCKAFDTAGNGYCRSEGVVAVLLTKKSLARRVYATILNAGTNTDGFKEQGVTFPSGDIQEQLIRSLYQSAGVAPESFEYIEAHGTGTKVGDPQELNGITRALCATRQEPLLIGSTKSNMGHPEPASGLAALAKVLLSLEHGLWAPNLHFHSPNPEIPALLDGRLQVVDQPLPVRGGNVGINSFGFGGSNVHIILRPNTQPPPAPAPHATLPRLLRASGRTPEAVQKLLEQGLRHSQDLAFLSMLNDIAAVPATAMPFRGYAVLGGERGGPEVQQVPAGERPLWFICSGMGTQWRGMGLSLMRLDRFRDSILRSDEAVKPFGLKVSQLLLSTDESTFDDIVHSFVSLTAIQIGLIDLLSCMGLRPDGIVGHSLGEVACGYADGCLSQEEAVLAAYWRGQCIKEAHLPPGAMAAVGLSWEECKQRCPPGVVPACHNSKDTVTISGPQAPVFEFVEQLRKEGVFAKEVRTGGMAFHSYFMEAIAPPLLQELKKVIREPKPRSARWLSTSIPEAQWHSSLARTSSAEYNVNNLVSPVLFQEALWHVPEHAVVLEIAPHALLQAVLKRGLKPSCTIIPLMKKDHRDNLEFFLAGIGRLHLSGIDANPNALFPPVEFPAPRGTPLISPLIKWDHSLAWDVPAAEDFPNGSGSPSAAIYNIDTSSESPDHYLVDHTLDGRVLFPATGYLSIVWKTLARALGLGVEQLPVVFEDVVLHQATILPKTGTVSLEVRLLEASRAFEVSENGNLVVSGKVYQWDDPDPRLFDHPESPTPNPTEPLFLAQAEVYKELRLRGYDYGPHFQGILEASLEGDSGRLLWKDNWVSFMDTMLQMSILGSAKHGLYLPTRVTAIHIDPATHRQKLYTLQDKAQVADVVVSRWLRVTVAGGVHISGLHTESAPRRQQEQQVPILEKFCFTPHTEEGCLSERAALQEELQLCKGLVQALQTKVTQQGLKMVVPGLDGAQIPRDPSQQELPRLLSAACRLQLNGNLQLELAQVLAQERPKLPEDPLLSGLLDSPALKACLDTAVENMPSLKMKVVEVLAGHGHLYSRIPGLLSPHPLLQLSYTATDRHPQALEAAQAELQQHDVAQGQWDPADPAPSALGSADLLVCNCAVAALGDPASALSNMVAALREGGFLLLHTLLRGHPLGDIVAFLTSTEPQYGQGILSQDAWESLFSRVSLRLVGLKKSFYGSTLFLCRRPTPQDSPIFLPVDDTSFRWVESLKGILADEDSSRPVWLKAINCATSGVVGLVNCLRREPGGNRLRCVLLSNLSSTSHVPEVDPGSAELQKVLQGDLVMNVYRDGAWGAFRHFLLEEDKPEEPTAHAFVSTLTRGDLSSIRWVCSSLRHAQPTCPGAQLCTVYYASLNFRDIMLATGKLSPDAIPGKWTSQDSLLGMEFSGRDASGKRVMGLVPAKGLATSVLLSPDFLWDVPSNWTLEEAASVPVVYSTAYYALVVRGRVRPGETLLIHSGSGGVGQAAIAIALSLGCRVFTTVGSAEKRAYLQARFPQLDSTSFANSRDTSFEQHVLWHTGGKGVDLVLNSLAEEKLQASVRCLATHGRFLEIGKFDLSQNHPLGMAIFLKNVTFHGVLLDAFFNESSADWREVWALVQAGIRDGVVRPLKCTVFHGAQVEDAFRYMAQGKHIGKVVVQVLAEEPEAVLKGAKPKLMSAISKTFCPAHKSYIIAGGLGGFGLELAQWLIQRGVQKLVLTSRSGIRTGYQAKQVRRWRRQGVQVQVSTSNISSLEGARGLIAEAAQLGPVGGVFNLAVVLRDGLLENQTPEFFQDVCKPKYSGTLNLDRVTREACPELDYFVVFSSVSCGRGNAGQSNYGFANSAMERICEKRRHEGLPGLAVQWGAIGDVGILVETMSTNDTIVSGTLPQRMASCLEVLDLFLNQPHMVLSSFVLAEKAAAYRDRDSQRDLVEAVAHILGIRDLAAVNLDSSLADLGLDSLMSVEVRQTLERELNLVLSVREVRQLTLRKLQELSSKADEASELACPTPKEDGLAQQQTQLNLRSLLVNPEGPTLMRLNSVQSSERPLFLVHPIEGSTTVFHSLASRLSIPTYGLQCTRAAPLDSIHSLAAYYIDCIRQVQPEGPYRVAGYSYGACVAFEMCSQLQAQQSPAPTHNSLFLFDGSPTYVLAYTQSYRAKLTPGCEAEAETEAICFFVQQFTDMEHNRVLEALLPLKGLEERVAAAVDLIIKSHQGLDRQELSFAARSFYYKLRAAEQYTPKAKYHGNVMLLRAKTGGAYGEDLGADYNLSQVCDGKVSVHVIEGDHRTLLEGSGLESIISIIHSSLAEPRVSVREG
Experiment [6] deals with T2, Fatty acid synthase. The experiment can be described thus: FAS thioesterase domain inhibitors, dose response, biochemical, kinetic fluorescence intensity (AID 624326).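 Further: rate of fluorescence rise from hydrolysis of a fluorogenic O-methyl fluorescein ester substrate.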 The class given is functional.
The target in the next experiment is T3, Caspase-3 (Homo sapiens, UniProt P42574).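 Further: Dose-response selectivity test against caspase-3 for candidate inhibitors of sentrin-specific proteases (SENPs).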
T3 sequence (P42574 whole entry): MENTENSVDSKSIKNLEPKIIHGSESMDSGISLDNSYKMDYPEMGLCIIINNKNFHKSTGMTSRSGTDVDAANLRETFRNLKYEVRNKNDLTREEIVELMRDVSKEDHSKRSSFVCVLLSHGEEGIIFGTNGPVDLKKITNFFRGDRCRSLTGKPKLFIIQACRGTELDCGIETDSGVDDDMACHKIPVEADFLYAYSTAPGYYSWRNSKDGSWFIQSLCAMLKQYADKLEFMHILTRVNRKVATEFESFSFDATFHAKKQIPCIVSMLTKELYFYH
Type of experiment: functional.

Experiment [7] concerns the target T4, Sentrin-specific protease 7 (Homo sapiens, UniProt Q9BQF6).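 Further: Luminescence-based dose-response confirmation of ultra-high-throughput screening hits, measuring inhibition of SENP7.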
T4 sequence (Q9BQF6 whole entry): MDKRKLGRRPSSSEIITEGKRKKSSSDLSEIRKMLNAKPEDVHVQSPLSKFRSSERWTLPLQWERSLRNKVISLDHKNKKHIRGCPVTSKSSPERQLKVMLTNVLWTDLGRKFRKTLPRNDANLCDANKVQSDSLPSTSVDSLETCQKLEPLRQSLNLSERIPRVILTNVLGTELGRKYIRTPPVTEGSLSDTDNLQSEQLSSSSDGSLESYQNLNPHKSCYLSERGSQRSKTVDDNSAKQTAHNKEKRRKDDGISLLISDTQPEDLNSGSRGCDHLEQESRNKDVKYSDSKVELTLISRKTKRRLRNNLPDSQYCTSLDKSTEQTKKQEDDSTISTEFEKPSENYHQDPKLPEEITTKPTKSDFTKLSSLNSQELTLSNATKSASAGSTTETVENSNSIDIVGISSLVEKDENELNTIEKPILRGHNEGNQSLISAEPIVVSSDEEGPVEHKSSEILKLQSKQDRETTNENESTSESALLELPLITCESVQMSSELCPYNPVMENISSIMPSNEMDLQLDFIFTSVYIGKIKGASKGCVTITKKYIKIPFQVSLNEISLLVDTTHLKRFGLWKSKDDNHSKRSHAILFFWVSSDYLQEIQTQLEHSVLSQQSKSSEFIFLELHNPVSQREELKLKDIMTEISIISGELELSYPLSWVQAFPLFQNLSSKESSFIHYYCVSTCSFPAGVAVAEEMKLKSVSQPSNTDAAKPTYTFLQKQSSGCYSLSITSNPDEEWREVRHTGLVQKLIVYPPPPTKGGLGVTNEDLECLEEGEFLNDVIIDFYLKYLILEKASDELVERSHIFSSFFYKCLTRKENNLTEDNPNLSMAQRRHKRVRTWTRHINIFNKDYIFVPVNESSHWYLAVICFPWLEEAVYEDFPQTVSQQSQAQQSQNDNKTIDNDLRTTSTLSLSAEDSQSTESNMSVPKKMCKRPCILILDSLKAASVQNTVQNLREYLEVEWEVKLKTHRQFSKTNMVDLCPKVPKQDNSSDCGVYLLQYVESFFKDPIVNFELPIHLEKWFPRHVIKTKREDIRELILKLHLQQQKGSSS
The class given is functional.

Experiment [8] deals with T5, Sentrin-specific protease 6 (Homo sapiens, UniProt Q9GZR1).
T5 sequence (Q9GZR1 whole entry): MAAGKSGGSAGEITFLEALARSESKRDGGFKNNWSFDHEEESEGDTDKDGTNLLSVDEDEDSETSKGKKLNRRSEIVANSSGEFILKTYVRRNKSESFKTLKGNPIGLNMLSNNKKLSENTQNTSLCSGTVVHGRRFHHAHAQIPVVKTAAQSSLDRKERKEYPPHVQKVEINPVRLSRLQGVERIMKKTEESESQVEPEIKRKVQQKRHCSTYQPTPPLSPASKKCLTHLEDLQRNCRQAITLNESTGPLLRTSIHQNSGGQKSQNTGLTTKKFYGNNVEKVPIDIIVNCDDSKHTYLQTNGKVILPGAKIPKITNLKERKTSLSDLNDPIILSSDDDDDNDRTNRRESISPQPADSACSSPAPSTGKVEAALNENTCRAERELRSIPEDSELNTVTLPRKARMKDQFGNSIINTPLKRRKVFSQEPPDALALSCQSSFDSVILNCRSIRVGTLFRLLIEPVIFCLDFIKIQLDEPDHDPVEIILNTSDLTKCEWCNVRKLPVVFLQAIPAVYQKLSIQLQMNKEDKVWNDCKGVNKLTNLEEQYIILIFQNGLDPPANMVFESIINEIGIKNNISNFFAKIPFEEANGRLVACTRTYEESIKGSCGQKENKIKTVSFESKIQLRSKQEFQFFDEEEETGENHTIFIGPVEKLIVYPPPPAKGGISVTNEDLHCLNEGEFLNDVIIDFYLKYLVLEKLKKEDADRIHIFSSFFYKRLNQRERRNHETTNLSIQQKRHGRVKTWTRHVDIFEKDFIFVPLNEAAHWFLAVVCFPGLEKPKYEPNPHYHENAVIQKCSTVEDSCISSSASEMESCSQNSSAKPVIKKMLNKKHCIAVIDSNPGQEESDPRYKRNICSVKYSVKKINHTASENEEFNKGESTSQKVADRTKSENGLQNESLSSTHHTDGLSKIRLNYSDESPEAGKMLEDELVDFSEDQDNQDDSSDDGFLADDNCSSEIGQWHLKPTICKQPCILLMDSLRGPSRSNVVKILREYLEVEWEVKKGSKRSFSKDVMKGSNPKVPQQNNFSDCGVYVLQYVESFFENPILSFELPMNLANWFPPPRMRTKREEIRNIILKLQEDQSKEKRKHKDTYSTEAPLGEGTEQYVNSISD
The class given is functional.

Experiment [9] has as its target T6, Sentrin-specific protease 8 (Homo sapiens, UniProt Q96LD8).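 Further: luminescence read-out of SENP8 inhibition, dose-response confirmation following an ultra-high-throughput screen.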
T6 sequence (Q96LD8 whole entry): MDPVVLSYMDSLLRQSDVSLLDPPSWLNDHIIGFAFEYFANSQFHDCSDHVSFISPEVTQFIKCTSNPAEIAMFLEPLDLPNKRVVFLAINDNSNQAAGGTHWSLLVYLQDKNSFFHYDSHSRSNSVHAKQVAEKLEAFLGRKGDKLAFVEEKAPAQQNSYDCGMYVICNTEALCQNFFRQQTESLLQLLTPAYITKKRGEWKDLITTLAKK
Type of experiment: functional.

For experiment [10], the target named is Glucose-6-phosphate 1-dehydrogenase (Homo sapiens, UniProt P11413). Nature of the experiment: human G6PD enzyme inhibitors, dose response, selectivity assay for P. falciparum G6PD inhibitor project, biochemical, fluorescence (AID 504792). Type of experiment: functional.
Sequence of Glucose-6-phosphate 1-dehydrogenase (P11413 whole entry): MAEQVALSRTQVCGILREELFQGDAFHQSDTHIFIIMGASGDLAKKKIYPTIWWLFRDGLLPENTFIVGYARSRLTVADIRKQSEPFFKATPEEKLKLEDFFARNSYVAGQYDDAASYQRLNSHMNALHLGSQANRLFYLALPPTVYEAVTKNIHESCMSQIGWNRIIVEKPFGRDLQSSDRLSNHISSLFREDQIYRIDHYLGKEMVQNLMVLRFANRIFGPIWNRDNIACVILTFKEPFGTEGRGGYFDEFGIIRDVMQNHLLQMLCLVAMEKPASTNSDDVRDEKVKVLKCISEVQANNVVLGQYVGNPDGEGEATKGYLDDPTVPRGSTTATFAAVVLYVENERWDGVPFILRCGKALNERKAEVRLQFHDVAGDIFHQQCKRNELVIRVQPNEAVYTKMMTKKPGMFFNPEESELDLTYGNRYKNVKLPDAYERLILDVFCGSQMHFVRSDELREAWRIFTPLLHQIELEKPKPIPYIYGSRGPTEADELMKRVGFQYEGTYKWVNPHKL

The source made the active and inactive calls.

For orientation: IC50 means the concentration that gives 50% inhibition. For orientation: AC50 means the midpoint of the concentration-response curve, whichever way the signal moves. One may read the EC50 as the concentration needed to bring the measured effect to its halfway point.

Sequence of Beta-galactosidase (Q8VNN2 whole entry): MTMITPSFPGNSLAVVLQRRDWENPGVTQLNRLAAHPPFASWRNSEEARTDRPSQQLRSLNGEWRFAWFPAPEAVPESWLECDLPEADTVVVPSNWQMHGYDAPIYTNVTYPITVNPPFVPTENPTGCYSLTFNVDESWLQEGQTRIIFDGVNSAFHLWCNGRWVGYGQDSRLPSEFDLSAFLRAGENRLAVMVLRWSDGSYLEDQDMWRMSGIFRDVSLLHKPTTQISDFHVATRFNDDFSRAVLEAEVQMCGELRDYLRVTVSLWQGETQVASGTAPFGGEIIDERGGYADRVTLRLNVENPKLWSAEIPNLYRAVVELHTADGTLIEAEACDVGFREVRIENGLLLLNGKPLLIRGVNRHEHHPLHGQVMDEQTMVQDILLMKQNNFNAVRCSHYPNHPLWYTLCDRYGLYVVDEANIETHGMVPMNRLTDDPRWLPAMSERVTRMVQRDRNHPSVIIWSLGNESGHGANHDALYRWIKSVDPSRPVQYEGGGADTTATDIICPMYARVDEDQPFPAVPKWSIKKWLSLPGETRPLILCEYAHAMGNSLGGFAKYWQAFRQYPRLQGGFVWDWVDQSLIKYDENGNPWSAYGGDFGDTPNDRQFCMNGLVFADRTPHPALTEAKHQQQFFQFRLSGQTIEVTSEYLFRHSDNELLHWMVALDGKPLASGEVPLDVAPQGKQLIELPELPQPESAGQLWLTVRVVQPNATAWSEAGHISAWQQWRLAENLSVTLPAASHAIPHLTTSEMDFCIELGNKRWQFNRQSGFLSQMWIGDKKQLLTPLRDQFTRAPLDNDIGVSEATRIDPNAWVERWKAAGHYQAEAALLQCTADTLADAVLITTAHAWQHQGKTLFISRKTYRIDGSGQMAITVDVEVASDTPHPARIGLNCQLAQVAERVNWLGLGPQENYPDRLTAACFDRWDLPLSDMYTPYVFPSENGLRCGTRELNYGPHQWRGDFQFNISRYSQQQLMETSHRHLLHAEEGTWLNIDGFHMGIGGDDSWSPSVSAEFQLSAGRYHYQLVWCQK
Sequence of Nonstructural protein 1 (Q194T2 whole entry): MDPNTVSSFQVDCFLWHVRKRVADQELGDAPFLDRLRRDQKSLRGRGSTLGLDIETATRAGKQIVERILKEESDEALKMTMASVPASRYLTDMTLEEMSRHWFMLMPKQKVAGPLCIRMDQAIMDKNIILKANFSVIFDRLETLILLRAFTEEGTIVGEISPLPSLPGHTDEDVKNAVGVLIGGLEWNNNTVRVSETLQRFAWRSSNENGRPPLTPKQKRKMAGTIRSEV

Consider `O=C(c1ccccc1)C1CCN(C(=O)c2ccc(Cl)cc2)CC1`, for which, on Beta-galactosidase, the IC50 is > 80 µM (inactive).

With `CN(C)c1ccc(CN2CC=C(c3ccc(F)cc3)CC2)cc1`, the IC50 on Nonstructural protein 1 is 50.2 µM (active). For the same molecule, the AC50 in experiment [1] was > 20 µM (inactive).

As for `Cc1[nH]c2nc(SCC(=O)c3ccccc3)nc-2cc1Br`, the 50% effective concentration (EC50) in [2] and in [3] was > 112 µM (not active) each time.

As for `COc1cc(/C=C(\C#N)C(=O)Nc2ccc3ccccc3c2)c([N+](=O)[O-])cc1OC`, the IC50 at Beta-galactosidase was > 80 µM (inactive).

On to `CN1/C(=C\C(=O)COC(=O)c2ccc([N+](=O)[O-])o2)C(C)(C)c2ccccc21`, for which the EC50 in experiment [2] and in [3] was > 112 µM (not active) in each case. Also, in the experiment “cells”, the 50% inhibitory concentration (IC50) was 1.22 µM (active).

Turning to `CC(C)(C)CNC(=O)c1cccc2c1C(=O)c1ccc(N3CCCC3)cc1S2(=O)=O`, the IC50 on Beta-galactosidase was > 80 µM (inactive).

Take `COc1ccc(NC(=O)c2sc(SCc3ccccc3)nc2N)cc1`: the IC50 on Beta-galactosidase was > 80 µM (inactive).

As for `Cc1ccc(CNS(=O)(=O)c2ccc3c(c2)CCN3C(=O)CCCC(=O)O)cc1`, the AC50 in [4] is > 52 µM (inactive).

For `C[C@@H]1CN([C@H](C)CO)S(=O)(=O)c2ccc(C#Cc3ccccc3F)cc2O[C@@H]1CN(C)C(=O)Cc1ccccc1`, the values for the IC50 on Fatty acid synthase [5], at Fatty acid synthase [6] and on Beta-galactosidase were 3.71 µM (active), 3.79 µM (active) and > 80 µM (inactive), respectively.

Turning to `Cc1ccc(C)c(-c2nnc(NC(=O)CS(=O)(=O)c3ccccc3)o2)c1`, the EC50 in experiment [2] and in [3] was > 112 µM (not active) throughout.

On to `CC(=O)Oc1ccc(/C=C/c2nc3ccccc3c(=O)o2)cc1`, for which the 50% effective concentration (EC50) in [2] is 0.359 µM (active); in [3] it was 0.333 µM (active).

Turning to `CCOc1ccc(/C=N/NC(=O)c2ccc(Cn3cc(Br)cn3)o2)cc1`, the IC50 was 35.4 µM (active) on Caspase-3, 13.2 µM (active) in [7], 52.7 µM (active) in experiment [8] and 56.5 µM (active) in experiment [9].

As to `O=C1/C(=C\c2ccc(O)cc2)SC(=S)N1Cc1ccccc1`, the half-maximal inhibitory concentration (IC50) is 41 µM (active) on Caspase-3, 16 µM (active) in [7], 8 µM (active) in experiment [8] and 9.59 µM (active) in experiment [9].

`O=C(CCCN1C(=O)/C(=C/c2cccc(Br)c2)SC1=S)N1CCOCC1`: the IC50 on Caspase-3 is > 100 µM (inactive); in [7] it was 45.6 µM (active); in [8], 79.6 µM (active); in [9] it was 78.1 µM (active).

As for `COc1ccc(COc2ccc3c(C)cc(=O)oc3c2)cc1`, the concentration for half-maximal inhibition (IC50) on Caspase-3 is 20 µM (active); in experiment [7] it was 9.04 µM (active); in experiment [8], 21.6 µM (active); in [9], 32.3 µM (active).

Consider `COc1cc(CNc2ccc3[nH]c(O)nc3c2)ccc1OCc1ccccc1`, for which, in [10], the IC50 is > 80 µM (inactive).

As for `COc1cccc(NC(=O)Cn2c3ccc(F)cc3c3nc4n(c(=O)c32)CCCS4)c1`, at Beta-galactosidase, the IC50 is > 80 µM (inactive).

The record behind these values is ChEMBL document CHEMBL1201862, “PubChem BioAssay data set” (2004).
